Measurements published in patent US8022036B2, “Use of thymosin alpha 1 for the treatment of immunological diseases” (Sigma-Tau Industrie Farmaceutiche Riunite S.p.A., priority 2006, dated 2011).
No end group written: not given here.

Tests used:
[1] = system: IDO; test: IDO expression (immunoblotting) and kynurenine production in DCs; format: cell-based, mouse
Procedure: IDO expression and functional activity were assessed as described in Nat. Immunol. […] Generation, purification and activity of T reg cells Splenic CD4+ T-cells were cocultured with conidia-pulsed DCs for 5 days […] before flow cytometry or ELISPOT assay. 1-MT (Sigma-Aldrich) was used at […].
Cells were assessed for IDO protein expression by immunoblotting and for kynurenine production. Positive and negative controls consisted of IDO protein-expressing MC24 transfectants and mock-transfected MC22 cells, respectively (not shown in the figure).

[2] = system: human non-small cell lung cancer (NSCLC) cells; settings: subcutaneous administration, nude mice; cited from earlier work
[3] = system: GM-DCs or FL-DCs; test: Phagocytosis of Aspergillus conidia by human GM- or FL-DCs; format: cell-based
From the text: GM-DCs or FL-DCs were obtained from purified CD14+ monocytes from healthy donors or transplanted patients (1 month post-HSCT) cultured in Iscove's modified medium for 7-9 days, in the presence of rGM-CSF (Schering-Plough, Milan, Italy) and rIL-4 (Peprotech, Inalco, Milan, Italy) or FLT3-L (Immunex Corporation, Seattle, Wash.) (Blood. 2004; 103:4232-4239). DC recovery was between 20-30% reduced in cultures from transplanted patients. Murine GM-DCs or FL-DCs were obtained from bone marrow cells for 7-9 days, as described (Blood. 2004; 103:4232-4239). Thymosin alpha 1 and sThymosin alpha 1 were added to the cultures at 20 ng/mL. DCs (>99% CD11c+ consisting of 90-95% CD8-, 5-10% CD8+, and 1-5% B220+ cells) were purified from spleens (spDCs) by magnetic-activated sorting using CD11c MicroBeads and MidiMacs (Miltenyi Biotech). DC populations were further separated into CD8−, CD8+ and B220+ fractions by means of CD8 or B220 MicroBeads (Miltenyi Biotech). DCs were pulsed in serum-free Iscove medium for 24 hours with live unopsonized Aspergillus conidia or Zymosan from Saccharomyces cerevisiae (Sigma) or CpG-ODN 2006 as described.7 Phagocytosis was done as described (Blood. 2004; 103:4232-4239). Photographs were taken using a high Resolution Microscopy Color Camera AxioCam, using the AxioVision Software Rel. 3.1 (Carl Zeiss, Milan, Italy).
(B) Phagocytosis of conidia by GM- or FL-DCs exposed (+) or not (−) to Thymosin alpha 1 from seven recipients of Tcell depleted haploidentical HSCT. The data are the means±SE and expressed as % internalization (numbers within figures). (*) P<0.05, Thymosin alpha 1-treated versus untreated cells.

Substance: Thymosin alpha 1: naturally occurring thymic peptide; supplied as purified, endotoxin-free sterile lyophilized acetylated polypeptide from SciClone Pharmaceuticals (Ac-SDAAVDTSSEITTKDLKEKKEVVEEAEN; UniProt P06454 2-29, looked up)
- induction of IDO protein and function in DCs from TLR9-/- or IFN-aβR-/- mice ([1]; DCs from knockout mice): not observed
- induction of functional IDO (protein, tryptophan to kynurenine conversion) ([1]; FL-DCs and GM-DCs): Induction of functional IDO by Thymosin alpha 1 in both FL-DCs and GM-DCs was confirmed
- tumor volume [2]: significantly decreased tumor volume
- phagocytosis of GM- and FL-DCs derived from patients ([3]; patients one month after transplantation): promoted the phagocytosis
- phagocytosis in GM-DCs ([3]; with Thymosin alpha 1 (from 30% without)): 56%
- phagocytosis in FL-DCs ([3]; with Thymosin alpha 1 (from 32% without)): 58%
